The source of these data is US10119958B2, “Arrays and methods for guided cell patterning” (University of Washington, priority 2007, dated 2018).

The test system of experiment [1] is HUVE cells. The experiment can be described thus: Cell viability assay (apoptosis and necrosis, Annexin V / propidium iodide) of patterned HUVE cells. The format is cell-based, human. To be noted: after 7 days of cell adhesion. The text has this: Retaining cell viability after cell adhesion is essential for cell biology studies and biomedical applications such as cell-based sensors and drug screening microarrays. The viability of cells patterned on the three model platforms were studied with an apoptosis assay noted in EXAMPLE section. FIGS. 10A-F show fluorescence images of HUVE cells on cell patterning platforms immobilized with (a) fibronectin, (b) REDVY peptide, and (c) KREDVY peptide after 7 days of cell adhesion. Cells on the platform with chemically bound fibronectin appeared apoptotic and necrotic (FIGS. 10A and 10D). This might be caused by the competitive adhesion of multiple cells on a limited surface area of the gold square-based cell adhesion regions, hindering individual cell growth and survival. […] Because the conformation of fibronectin protein on the gold square-based cell adhesion regions varies from site to site, the degree of interactions of HUVE cells with the binding peptides of the protein and the number of cells attached on each site can differ from pattern to pattern.
VYBRANT apoptosis assay allows for the simultaneous visualization of viable, necrotic, and apoptotic cells on substrates. Necrosis results from direct cell damage; apoptosis is genetically-programmed cell death in which cells effectively commit suicide. […] The substrates were incubated with 100 μL of Annexin V and 2 μL of PI solution for 15 minutes at room temperature, washed twice with binding buffer, and imaged with a fluorescence microscope.

The test system of experiment [2] is HUVE cells. The experiment in a line: Quantification of HUVE cell adhesion on gold-patterned silicon substrates (cell coverage, single cell ratio). The format is cell-based, human. To be noted: HUVE cells cultured 18 hours; 20 μm gold squares; 378 cell adhesion regions. As to the method:
Thus, quantification of single cell coverage is necessary for understanding the capability of this peptide-mediated cell adhesion process. HUVE cells were cultured on fibronectin and peptide modified platforms in standard culture media for 18 hours and stained with DAPI for cell nuclei to emit blue fluorescence. Fluorescence microscopy was used to identify single or multiple cells on gold square-based cell adhesion regions. Cell coverage and single cell population for each type of surface were quantified from 378 gold square-based cell adhesion regions (3 samples×2 areas of interest with 63 cell adhesion regions per area). Cell coverage was calculated from the ratio of gold square-based cell adhesion regions covered with cells to the total number of the cell adhesion regions in the area of interest, and single cell ratio was obtained by dividing the number of gold square-based cell adhesion regions covered with single cells to the total number of cell adhesion regions covered with cells (single or multiple). Exemplary images of adhered cells on three model platforms are shown in FIGS. 9A-D, and quantification results are shown in Table 1. As expected, the fibronectin and KREDVY modified surfaces have higher cell coverage than the REDVY modified surface due to larger number binding domains available on the former two surfaces than on the latter. Both peptide modified surfaces have much higher single cell ratios than the fibronectin modified surface. Clearly, the KREDVY modified surface is the best candidate for single cell patterning in light of both cell coverage and single cell ratio. As a side note, for electrical recording, it is easy to distinguish between single and multiple cells, allowing either type of site to be observed selectively.
HUVE cells were cultured in EGM-2 medium supplemented with bovine brain extract (BBE), hydrocortisone, hFGF-B, VEGF, R3-IGF-1, ascorbic acid, heparin, FBS, hEGF, and GA-1000. The final serum concentration was 2%. Cells were seeded on culture flasks at passage 1 and the medium was changed after 24 hours. At 70% confluency, cells were subcultured as follows. After aspiration from culture flasks, cells were rinsed with 2-3 ml of HEPES-BSS buffer solution for 3 times, followed by incubation with 2 ml of trypsin/EDTA solution. The trypsinization process continued until about 90% of the cells were collected. After cells were released, the trypsin was neutralized in the flask with 4 ml of TNS, and the detached cells were transferred to a 15-ml sterile centrifuge tube. The harvested cells were centrifuged at 220 g for 5 minutes. Cells were diluted in growth medium. Cells at a concentration of 1.5×10^5 cells/ml were seeded on the substrates. The substrates were incubated for 18 hours before fixation with a mixture of 2% glutaraldehyde and paraformaldehyde in phosphate buffer solution for optical microscopy and with 4% paraformaldehyde for fluorescence microscopy.

Experiment [3] concerns RAW264.7 cells (murine monocyte/macrophage). The experiment in a line: Synchrotron FTIR spectromicroscopy of patterned macrophage cells exposed to LPS. It counts as cell-based. To be noted: for peak of amide I group post-exposure: single cells, eight electrodes of two substrates. The text has this: Cells in an isolated state (e.g., one cell on each microelectrode) generally respond differently to an external stimulus than when they are in a communicating state (e.g., a cluster of cells on a microelectrode).
IR spectra and optical reflectance DIC images were acquired from cells on the patterned substrates with single or a group of macrophage cells on each electrode both before and after cellular exposure to LPS. Synchrotron FTIR spectra were acquired from cell-patterned surfaces with a Nicolet Magna 760 FTIR bench and a Nicolet Nic-Plan™ IR microscope equipped with a computer-controlled x-y-z sample stage (via Nicolet Atlμs™ and OMNIC software) and an MCT-A detector at Beamline 1.4.3 of the Advanced Light Source (ALS) in Lawrence Berkeley National Laboratory, Berkeley. C A. Martin, M. C. and McKinney, R. W., Proceed. Mater. Res. Soc. 524, 11-15, 1998; C A. Martin, M. C. and McKinney, R. W., Proceedings of the Low Energy Electrodynamics in Solids, '99 Conference, Pécs, Hungary, Special Issue of Ferroelectrics, 249, 1-10, 2001. In order to align the incident IR beam onto the substrate, an IR map (with 2-10 μm step size in x-y plane) was acquired around a gold electrode for a full IR range of 400-10,000 wave numbers. Under this condition, the whole spectrum appeared as a broad peak and an intensity profile was given for the mapped region. The x, y positions were adjusted so that the highest intensity region of the beam was aligned with the center of the gold electrode. The samples were measured at wave numbers of 650-10,000 cm^−1 using an XT-KBr beamsplitter and an MCT detector. The synchrotron infrared light is focused to a diffraction-limited spot size with a wavelength-dependent diameter of approximately 3-10 μm across the mid-IR range of interest. Carr, G. L. Review of Scientific Instruments 72, 1613-1619, 2001; and Dumas, P., et al., Faraday Discussions 126, 289-302, 2004. An on-stage temperature controlled mini incubator was used to maintain a proper environment for cellular analysis. Prior to infrared analysis, dead and loosely bound cells were removed from the substrate by three PBS washes (to eliminate the possible interference of dead and loosely bound cells to the real-time signals generated by live cells), the cell culture medium was replaced with fresh sterile medium, and the substrate covered with a layer of the medium was transferred to the mini incubator. The spectra were acquired in less than 10 minutes following the sample transfer to ensure cell viability and to minimize possible interference from environmental changes. Synchrotron FTIR spectra of 128 scans at a resolution of 8 cm^−1 were acquired from individual electrodes patterned with cells. Background signals were collected from the silicon oxide surface of the same substrate right before the data collection. […] All spectra were baseline-corrected and normalized to account for the continuous decay of the synchrotron beam in the storage ring. An appropriately scaled water vapor spectrum was subtracted from the spectra of cells. The spectra obtained with conventional FTIR were acquired from cell-patterned surfaces using a Thermo-Electron Nexus 870 bench and a Thermo-Electron Continuum infrared microscope with an MCT-A detector at Beamline 1.4.4 of the ALS under the same conditions set for the synchrotron measurements, except that an aperture size of 90 μm×90 μm were employed to maximize the signal intensity.

Experiment [4] has the same test system. The experiment in a line: DIC reflectance microscopy of macrophage morphology after LPS exposure. The format is cell-based. To be noted: LPS 0.1, 1.0 and 10 μg/mL, 21 hours. The text has this:
Cell-cultured surfaces were examined with a differential interference contrast (DIC) reflectance microscope (Nikon E800 Upright Microscope, NY, N.Y.) equipped with DIC-20× (N.A. 0.46) and DIC-50× (N.A. 0.8) objectives. Images were acquired with a Coolsnap camera (series A99G81021, Roper Scientific Inc., AZ, USA) attached to the microscope and a computer. […] FIGS. 12A, 12C, and 12E are optical DIC images of electrodes with a single cell, double cells, and triple cells, respectively.

[5] abbreviates: LPS 1 μg/mL, 21 hours, 10 μm×10 μm electrodes, mean±S.D. of four electrodes.

Where no end group is shown, it is not given here.

Consider KREDVY, for which, in the experiment with HUVE cells [1], the “cell apoptosis / viability (Annexin V)” value is reported as “remained viable throughout 7 days” and the “cell necrosis (propidium iodide)” value is recorded as “No cell necrosis was observed”. Besides, in the experiment on HUVE cells [2], the “% Cell Coverage” value stood at 78.40 ± 3.96% and the “% Ratio of single-cell sites/total cell sites” value was found to be 72.17 ± 2.49%.

Regarding Fibronectin, in the experiment on HUVE cells [1], the “cell apoptosis / viability (Annexin V)” value is “apoptotic” and the “cell necrosis (propidium iodide)” value was “necrotic”. In the experiment with HUVE cells [2], the “% Cell Coverage” value is 83.47 ± 3.20% and the “% Ratio of single-cell sites/total cell sites” value is 27.41 ± 3.64%.

For lipopolysaccharide [LPS], the “Amide I wave number, Double cells” value in experiment [3] (setting [5]) is 1665 ± 2.6 cm⁻¹. Moreover, the “Amide I wave number, Single cell” value in experiment [3] (setting [5]) was 1661 ± 1.6 cm⁻¹. The “Amide I wave number, Triple cells” value in experiment [3] (setting [5]) worked out at 1658 ± 3.4 cm⁻¹. In addition, the “peak of amide I group post-exposure” value in experiment [3] (0.1 μg/mL LPS, 21 hours) came out at 1659 ± 1.7 cm⁻¹; in experiment [3] (1 μg/mL LPS, 21 hours) it was 1661 ± 1.0 cm⁻¹; in experiment [3] (10 μg/mL LPS, 21 hours), 1676 ± 1.0 cm⁻¹. The “shift in wave number” value in experiment [3] (single-cell platform, LPS 1.0 μg/mL) is 30 cm⁻¹. For the same substance, the cell morphology result in experiment [4] was “enlarged, dendritic-like shape”.

As to Arg-Glu-Asp-Val-Tyr (REDVY), in the experiment on HUVE cells [1], the “cell apoptosis / viability (Annexin V)” value is on record as “became apoptotic at day 7” and the “cell necrosis (propidium iodide)” value is recorded as “No cell necrosis was observed”. In the experiment with HUVE cells [2], the “% Cell Coverage” value is listed as 56.28 ± 3.03% and the “% Ratio of single-cell sites/total cell sites” value is on record as 62.25 ± 3.23%.
